pIC50: −log10 of the molar value.
What was measured:
SCD-1 = biological target: T1, SCD-1 (Homo sapiens, UniProt O00767); assay: Human enzymatic activity of SCD-1 from microsomes of HepG2 cells (conversion of [14C] stearic acid to oleic acid, HPLC); type: biochemical; conditions: microsomal fraction of HepG2 cells, 62 μM stearic acid, 20 minutes at 37° C., vs vehicle 0.1% DMSO; read-out: HSCD-1 (HEPG2) IC50
T1 construct: addition of 125 μg of microsomal fraction of HepG2 cells; host or cells: HepG2 human hepatocarcinoma cells (microsomal fraction)
T1 sequence (O00767 1-359): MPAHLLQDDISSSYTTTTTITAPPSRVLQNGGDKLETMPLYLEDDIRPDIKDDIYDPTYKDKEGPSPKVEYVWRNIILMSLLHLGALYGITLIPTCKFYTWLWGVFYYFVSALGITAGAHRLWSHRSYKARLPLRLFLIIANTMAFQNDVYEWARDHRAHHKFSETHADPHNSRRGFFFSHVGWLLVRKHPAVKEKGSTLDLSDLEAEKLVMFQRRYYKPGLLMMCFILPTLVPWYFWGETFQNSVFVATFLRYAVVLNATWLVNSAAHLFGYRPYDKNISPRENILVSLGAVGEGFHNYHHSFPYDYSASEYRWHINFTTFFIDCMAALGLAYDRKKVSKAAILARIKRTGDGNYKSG
Method: In vitro: Human enzymatic activity of SCD-1 from microsomes of HepG2 cells after treatment with the inhibitor compounds (% inhibition).
HepG2 cells of human hepatocarcinoma (ATCC, HB-8065) are cultured at confluence then trypsinated. The cell residue is solubilized in 10 mM Tris buffer (pH 7.4) sucrose (250 mM) DTT (1 mM) then the cells are lysed by sonication. The microsomes are obtained after centrifuging at 10,000 g for 20 minutes at 4° C. followed by centifrugation of the supernatant at 100,000 g for 60 minutes at 4° C. The residue is solubilized in 10 mM Tris buffer (pH 7.4) sucrose (250 mM) at 4° C. and the microsomal proteins are assayed and stored at −196° C. (liquid nitrogen).
The enzymatic reaction measures the conversion of stearic acid (C18:0 fatty acid) into oleic acid (C18:1 fatty acid) by SCD-1. The enzymatic reaction is initiated by the addition of 125 μg of microsomal fraction of HepG2 cells to tubes (total reaction volume of 500 μl) containing 62 μM stearic acid (45 μM stearic acid and 17 μM [^14C] stearic acid) in 100 mM phosphate buffer (pH 7.16) with 7.2 mM ATP, 0.54 mM CoA, 6 mM MgCl2, 0.8 mM NADH and the inhibitor compound or vehicle (0.1% DMSO). The tubes are incubated for 20 minutes at 37° C. then the enzymatic reaction is halted by the addition of KOH (12%) and saponification for 30 minutes at 80° C. After acidification (3N HCl), the fatty acids are extracted twice with ethyl ether, evaporated under nitrogen before being solubilized in methanol/dichloromethane (3:1). The reaction product (C18:1) is separated from the reaction substrate (C18:0) by HPLC (Perkin Elmer, C18 reverse phase column) coupled with an in-line radioactivity detector (FlowOne). Enzymatic activity is measured in picomoles of stearic acid converted to oleic acid per minute and per mg of protein. For each inhibitor compound, an IC50 value is determined, compared with the reference enzymatic activity (vehicle 0.1% DMSO). Sterculic acid is the reference inhibitor compound (Gomez F. E., Bauman D. E., Ntambi J. M., Fox B. G. Effects of sterculic acid on stearoyl-CoA desaturase in differentiating […] adipocytes. Biochem Biophys Res Commun. 300 316-326 (2003).

Row | pIC50 (SCD-1) | melting point | Compound
1 | 8.52 | 160 °C | Cn1nccc(NCC(=O)N2CCC(Oc3cc(Br)ccc3Cl)CC2)c1=O [Example 6, 4-{2-[4-(5-Bromo-2-chloro-phenoxy)-piperidin-1-yl]-2-oxo-ethylamino}-2-methyl-2H-pyridazin-3-one]
2 | 6.00 to 7.00 | 142 °C | Cn1nccc(NCC(=O)N2CCC(Oc3ccccc3Cl)CC2)c1=O [Example 7, 4-{2-[4-(2-Chloro-phenoxy)-piperidin-1-yl]-2-oxo-ethylamino}-2-methyl-2H-pyridazin-3-one]
3 | 7.00 | 159 °C | Cn1nccc(NCC(=O)N2CCC(Oc3cc(F)ccc3Cl)CC2)c1=O [Example 8, 4-{2-[4-(2-Chloro-5-fluoro-phenoxy)-piperidin-1-yl]-2-oxo-ethylamino}-2-methyl-2H-pyridazin-3-one]
4 | 6.52 to 7.00 | 152 °C | Cn1nccc(NCC(=O)N2CCC(Oc3ccc(Cl)cc3Cl)CC2)c1=O [Example 11, 4-{2-[4-(2,4-Dichloro-phenoxy)-piperidin-1-yl]-2-oxo-ethylamino}-2-methyl-2H-pyridazin-3-one]
5 | 5.00 to 5.52 | 122 °C | Cn1nccc(NCC(=O)N2CC(Oc3ccccc3C(F)(F)F)C2)c1=O [Example 27, 2-Methyl-4-{2-oxo-2-[3-(2-trifluoromethyl-phenoxy)-azetidin-1-yl]-ethylamino}-2H-pyridazin-3-one]
6 | ~6.52 | 182 °C | Cn1nccc(NCC(=O)N2CCC(CNc3ccccc3C(F)(F)F)CC2)c1=O [Example 31, 2-Methyl-4-(2-oxo-2-{4-[(2-trifluoromethyl-phenylamino)-methyl]-piperidin-1-yl}-ethylamino)-2H-pyridazin-3-one]
7 | 6.00 to 6.52 | 64 °C | Cn1nccc(NCC(=O)N2CCC(CNc3cc(C(F)(F)F)ccc3Cl)CC2)c1=O [Example 32, 4-(2-{4-[(2-Chloro-5-trifluoromethyl-phenylamino)-methyl]-piperidin-1-yl}-2-oxo-ethylamino)-2-methyl-2H-pyridazin-3-one]
8 | 7.00 to 7.52 | 183 °C | Cn1nccc(NCC(=O)N2CCC(COc3cc(C(F)(F)F)ccc3Cl)C2)c1=O (centres unmarked) [Example 34, 4-{2-[3-(2-Chloro-5-trifluoromethyl-phenoxymethyl)-pyrrolidin-1-yl]-2-oxo-ethylamino}-2-methyl-2H-pyridazin-3-one]
9 | 6.00 to 7.00 | 205 °C | Cn1nccc(NC(=O)C(=O)N2CCC(Oc3cc(C(F)(F)F)ccc3Cl)CC2)c1=O [Example 35, 2-[4-(2-Chloro-5-trifluoromethyl-phenoxy)-piperidin-1-yl]-N-(2-methyl-3-oxo-2,3-dihydro-pyridazin-4-yl)-2-oxo-acetamide]
10 | 6.00 to 7.00 | 60 °C | COc1cnn(C)c(=O)c1NCC(=O)N1CCC(Oc2cc(C(F)(F)F)ccc2Cl)CC1 [Example 51, 4-{2-[4-(2-Chloro-5-trifluoromethyl-phenoxy)-piperidin-1-yl]-2-oxo-ethylamino}-5-methoxy-2-methyl-2H-pyridazin-3-one]

Second part, the molecule before the results:

Row | Compound | pIC50 (SCD-1) | melting point
11 | Cn1nccc(NCC(=O)N2CCC(Oc3cc(F)cc(C(F)(F)F)c3)CC2)c1=O [Example 3, 4-{2-[4-(3-Fluoro-5-trifluoromethyl-phenoxy)-piperidin-1-yl]-2-oxo-ethylamino}-2-methyl-2H-pyridazin-3-one] | 6.00 to 7.00 | 175 °C
12 | Cn1nccc(NCC(=O)N2CCC(Oc3cc(C(F)(F)F)ccc3Cl)CC2)c1=O [Example 4, 4-{2-[4-(2-Chloro-5-trifluoromethyl-phenoxy)-piperidin-1-yl]-2-oxo-ethylamino}-2-methyl-2H-pyridazin-3-one] | 7.00 to 8.00 | 158 °C
13 | Cn1nccc(NCC(=O)N2CCC(Oc3cc(F)c(F)cc3Br)CC2)c1=O [Example 5, 4-{2-[4-(2-Bromo-4,5-difluoro-phenoxy)-piperidin-1-yl]-2-oxo-ethylamino}-2-methyl-2H-pyridazin-3-one] | 7.00 to 7.52 | 137 °C
14 | Cn1nccc(NCC(=O)N2CCC(Oc3cc([N+](=O)[O-])ccc3Cl)CC2)c1=O [Example 9, 4-{2-[4-(2-Chloro-5-nitro-phenoxy)-piperidin-1-yl]-2-oxo-ethylamino}-2-methyl-2H-pyridazin-3-one] | 6.00 to 7.00 | 162 °C
15 | Cn1nccc(NCC(=O)N2CCC(Oc3ccc(Cl)c(Cl)c3)CC2)c1=O [Example 10, 4-{2-[4-(3,4-Dichloro-phenoxy)-piperidin-1-yl]-2-oxo-ethylamino}-2-methyl-2H-pyridazin-3-one] | 6.00 to 6.52 | 169 °C
16 | Cn1nccc(NCC(=O)N2CCC(Oc3cc(Cl)ccc3Cl)CC2)c1=O [Example 12, 4-{2-[4-(2,5-Dichloro-phenoxy)-piperidin-1-yl]-2-oxo-ethylamino}-2-methyl-2H-pyridazin-3-one] | 7.00 to 7.52 | 162 °C
17 | Cc1ccc(F)cc1OC1CCN(C(=O)CNc2ccnn(C)c2=O)CC1 [Example 14, 4-{2-[4-(5-Fluoro-2-methyl-phenoxy)-piperidin-1-yl]-2-oxo-ethylamino}-2-methyl-2H-pyridazin-3-one] | 6.00 to 7.00 | 176 °C
18 | Cc1ccc(C(C)C)cc1OC1CCN(C(=O)CNc2ccnn(C)c2=O)CC1 [Example 16, 4-{2-[4-(5-Isopropyl-2-methyl-phenoxy)-piperidin-1-yl]-2-oxo-ethylamino}-2-methyl-2H-pyridazin-3-one] | 7.00 to 7.52 | 159 °C
19 | Cn1ncc(OCC(=O)N2CCC(Oc3cc(C(F)(F)F)ccc3Cl)CC2)cc1=O [Example 24, 5-{2-[4-(2-Chloro-5-trifluoromethyl-phenoxy)-piperidin-1-yl]-2-oxo-ethoxy}-2-methyl-2H-pyridazin-3-one] | 5.52 to 6.00 | 176 °C
20 | Cn1ncc(OCC(=O)N2CCC(Oc3cc(Cl)ccc3Cl)CC2)cc1=O [Example 25, 5-{2-[4-(2,5-Dichloro-phenoxy)-piperidin-1-yl]-2-oxo-ethoxy}-2-methyl-2H-pyridazin-3-one] | 5.00 to 6.00 | 163 °C
21 | Cn1nccc(/C=C/C(=O)N2CCC(Oc3cc(C(F)(F)F)ccc3Cl)CC2)c1=O [Example 36, 4-{(E)-3-[4-(2-Chloro-5-trifluoromethyl-phenoxy)-piperidin-1-yl]-3-oxo-propenyl}-2-methyl-2H-pyridazin-3-one] | 6.00 to 6.52 | 154 °C
22 | O=C(CNc1ccn[nH]c1=O)N1CCC(Oc2cc(C(F)(F)F)ccc2Cl)CC1 [Example 40, 4-{2-[4-(2-Chloro-5-trifluoromethyl-phenoxy)-piperidin-1-yl]-2-oxo-ethylamino}-2H-pyridazin-3-one] | 7.00 to 8.00 | 222 °C
23 | Cn1nccc(NC(=O)N2CCC(Oc3cc(C(F)(F)F)ccc3Cl)CC2)c1=O [Example 52, 4-(2-Chloro-5-trifluoromethyl-phenoxy)-piperidine-1-carboxylic acid (2-methyl-3-oxo-2,3-dihydro-pyridazin-4-yl)-amide] | 7.00 to 7.52 | 148 °C
24 | Cn1nccc(NC(=O)N2CCC(Oc3cc(F)ccc3Cl)CC2)c1=O [Example 53, 4-(2-Chloro-5-fluoro-phenoxy)-piperidine-1-carboxylic acid (2-methyl-3-oxo-2,3-dihydro-pyridazin-4-yl)-amide] | 7.00 to 7.52 | 116 °C
25 | Cn1nccc(NC(=O)N2CCC(Oc3cc(C(F)(F)F)ccc3F)CC2)c1=O [Example 54, 4-(2-fluoro-5-trifluoromethyl-phenoxy)-piperidine-1-carboxylic acid (2-methyl-3-oxo-2,3-dihydro-pyridazin-4-yl)-amide] | 7.00 to 7.52 | 102 °C

Reference: patent publication US8946225B2, “Derivatives of 2H pyridazin-3-ones, their preparation and their use as SCD-1 inhibitors” (Pierre Fabre Medicament, priority 2009, dated 2015)
